Laboratory results published in patent US12077503B2, “Substituted cyclic amides and their use as herbicides” (FMC CORPORATION, priority 2015, dated 2024).

Experiments:
Assay type in all cases: in vivo
[1] = system: redroot pigweed (Amaranthus retroflexus); assay: Test G Post-Emergence Protocol; settings: Amaranthus retroflexus, post-emergence, 312 h; for pest or weed control at 15.625 g/ha: 15.625 g ai/ha, evaluated after 13 days (100=total damage to plant; 0=no damage to plant), read-out: Pigweed, Redroot damage rating; for pest or weed control at 62.5 g/ha: 62.5 g ai/ha, read-out: Pigweed, Redroot damage rating (100=total damage to plant; 0=no damage to plant); for pest or weed control at 62.5 g/ha / pest or weed control at 250 g/ha: evaluated after 13 days; for pest or weed control at 250 g/ha: 250 g ai/ha, read-out: damage to plant, Pigweed, Redroot (100=total damage to plant; 0=no damage to plant)
Outline: (§1)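 Foliar application was made 8 days after sowing, using an aqueous spray of the active in acetone/water (50:50) with 0.5% Tween 20, at doses of 15.625, 62.5 or 250 g/ha. Injury was assessed 13 days later, where 100 meant the plant was fully damaged.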

[2] = system: barnyardgrass (Echinochloa crus-galli); assay: Test G Post-Emergence Protocol; settings: Echinochloa crus-galli, post-emergence, 312 h; for pest or weed control at 15.625 g/ha: 15.625 g ai/ha, evaluated after 13 days (100=total damage to plant; 0=no damage to plant), read-out: Barnyardgrass damage rating; for pest or weed control at 62.5 g/ha: 62.5 g ai/ha, read-out: Barnyardgrass damage rating (100=total damage to plant; 0=no damage to plant); for pest or weed control at 62.5 g/ha / pest or weed control at 250 g/ha: evaluated after 13 days; for pest or weed control at 250 g/ha: 250 g ai/ha, read-out: damage to plant, Barnyardgrass (100=total damage to plant; 0=no damage to plant)
Outline: as §1

[3] = system: giant foxtail (Setaria faberi); assay: Test G Post-Emergence Protocol; settings: Setaria faberi, post-emergence, 312 h; for pest or weed control at 15.625 g/ha: 15.625 g ai/ha, evaluated after 13 days (100=total damage to plant; 0=no damage to plant), read-out: Foxtail, Giant damage rating; for pest or weed control at 62.5 g/ha: 62.5 g ai/ha, read-out: Foxtail, Giant damage rating (100=total damage to plant; 0=no damage to plant); for pest or weed control at 62.5 g/ha / pest or weed control at 250 g/ha: evaluated after 13 days; for pest or weed control at 250 g/ha: 250 g ai/ha, read-out: damage to plant, Foxtail, Giant (100=total damage to plant; 0=no damage to plant)
Outline: as §1

[4] = system: velvetleaf (Abutilon theophrasti); assay: Test G Post-Emergence Protocol; settings: Abutilon theophrasti, post-emergence, 312 h; for pest or weed control at 15.625 g/ha: 15.625 g ai/ha, evaluated after 13 days (100=total damage to plant; 0=no damage to plant), read-out: Velvetleaf damage rating; for pest or weed control at 62.5 g/ha: 62.5 g ai/ha, read-out: Velvetleaf damage rating (100=total damage to plant; 0=no damage to plant); for pest or weed control at 62.5 g/ha / pest or weed control at 250 g/ha: evaluated after 13 days; for pest or weed control at 250 g/ha: 250 g ai/ha, read-out: damage to plant, Velvetleaf (100=total damage to plant; 0=no damage to plant)
Outline: as §1

[5] = system: corn (Zea mays); assay: Test G Post-Emergence Protocol; settings: Zea mays, post-emergence, 312 h; for plant injury at 15.625 g/ha: 15.625 g ai/ha, evaluated after 13 days (100=total damage to plant; 0=no damage to plant), read-out: Corn damage rating; for plant injury at 62.5 g/ha: 62.5 g ai/ha, read-out: Corn damage rating (100=total damage to plant; 0=no damage to plant); for plant injury at 62.5 g/ha / plant injury at 250 g/ha: evaluated after 13 days; for plant injury at 250 g/ha: 250 g ai/ha, read-out: damage to plant, Corn (100=total damage to plant; 0=no damage to plant)
Outline: as §1

[6] = system: ivy-leaved morning glory (Ipomoea hederacea); assay: Test G Post-Emergence Protocol; settings: Ipomoea, post-emergence, 312 h; for pest or weed control at 15.625 g/ha: 15.625 g ai/ha, evaluated after 13 days (100=total damage to plant; 0=no damage to plant), read-out: Morningglory, Ivy-leaved damage rating; for pest or weed control at 62.5 g/ha: 62.5 g ai/ha, read-out: Morningglory, Ivy-leaved damage rating (100=total damage to plant; 0=no damage to plant); for pest or weed control at 62.5 g/ha / pest or weed control at 250 g/ha: evaluated after 13 days; for pest or weed control at 250 g/ha: 250 g ai/ha, read-out: damage to plant, Morningglory, Ivy-leaved (100=total damage to plant; 0=no damage to plant)
Outline: as §1

[7] = system: redroot pigweed (Amaranthus retroflexus); assay: Test G Pre-Emergence Protocol; settings: Amaranthus retroflexus, pre-emergence, 312 h, evaluated after 13 days; for pest or weed control at 15.625 g/ha: 15.625 g ai/ha; for pest or weed control at 15.625 g/ha / pest or weed control at 250 g/ha: read-out: Pigweed, Redroot damage rating (100=total damage to plant; 0=no damage to plant); for pest or weed control at 62.5 g/ha: 62.5 g ai/ha, 100=total damage to plant, 0=no damage to plant, read-out: plant damage rating, Pigweed, Redroot; for pest or weed control at 250 g/ha: 250 g ai/ha
Outline: (§2)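 Seeds were sown in standard soil and kept one day in a glasshouse (24/16° C day/night, 14 h light, 65% humidity), then sprayed with compound in acetone/water (50:50) containing 0.5% Tween 20 at 15.625, 62.5 or 250 g/ha. Damage was scored after 13 days (0 = none, 100 = total).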

[8] = system: barnyardgrass (Echinochloa crus-galli); assay: Test G Pre-Emergence Protocol; settings: Echinochloa crus-galli, pre-emergence, 312 h, evaluated after 13 days; for pest or weed control at 15.625 g/ha: 15.625 g ai/ha, read-out: Barnyard grass damage rating (100=total damage to plant; 0=no damage to plant); for pest or weed control at 62.5 g/ha: 62.5 g ai/ha, 100=total damage to plant, 0=no damage to plant, read-out: plant damage rating, Barnyardgrass; for pest or weed control at 250 g/ha: 250 g ai/ha, read-out: Barnyardgrass damage rating (100=total damage to plant; 0=no damage to plant)
Outline: as §2

[9] = system: giant foxtail (Setaria faberi); assay: Test G Pre-Emergence Protocol; settings: Setaria faberi, pre-emergence, 312 h, evaluated after 13 days; for pest or weed control at 15.625 g/ha: 15.625 g ai/ha; for pest or weed control at 15.625 g/ha / pest or weed control at 250 g/ha: read-out: Foxtail, Giant damage rating (100=total damage to plant; 0=no damage to plant); for pest or weed control at 62.5 g/ha: 62.5 g ai/ha, 100=total damage to plant, 0=no damage to plant, read-out: plant damage rating, Foxtail, Giant; for pest or weed control at 250 g/ha: 250 g ai/ha
Outline: as §2

[10] = system: velvetleaf (Abutilon theophrasti); assay: Test G Pre-Emergence Protocol; settings: Abutilon theophrasti, pre-emergence, 312 h, evaluated after 13 days; for pest or weed control at 15.625 g/ha: 15.625 g ai/ha; for pest or weed control at 15.625 g/ha / pest or weed control at 250 g/ha: read-out: Velvetleaf damage rating (100=total damage to plant; 0=no damage to plant); for pest or weed control at 62.5 g/ha: 62.5 g ai/ha, 100=total damage to plant, 0=no damage to plant, read-out: plant damage rating, Velvetleaf; for pest or weed control at 250 g/ha: 250 g ai/ha
Outline: as §2

[11] = system: corn (Zea mays); assay: Test G Pre-Emergence Protocol; settings: Zea mays, pre-emergence, 312 h, evaluated after 13 days; for plant injury at 15.625 g/ha: 15.625 g ai/ha; for plant injury at 15.625 g/ha / plant injury at 250 g/ha: read-out: Corn damage rating (100=total damage to plant; 0=no damage to plant); for plant injury at 62.5 g/ha: 62.5 g ai/ha, 100=total damage to plant, 0=no damage to plant, read-out: plant damage rating, Corn; for plant injury at 250 g/ha: 250 g ai/ha
Outline: as §2

[12] = system: ivy-leaved morning glory (Ipomoea hederacea); assay: Test G Pre-Emergence Protocol; settings: Ipomoea, pre-emergence, 312 h, evaluated after 13 days; for pest or weed control at 15.625 g/ha: 15.625 g ai/ha, read-out: Morning-glory, Ivy-leaved damage rating (100=total damage to plant; 0=no damage to plant); for pest or weed control at 62.5 g/ha: 62.5 g ai/ha, 100=total damage to plant, 0=no damage to plant, read-out: plant damage rating, Morningglory, Ivy-leaved; for pest or weed control at 250 g/ha: 250 g ai/ha, read-out: Morningglory, Ivy-leaved damage rating (100=total damage to plant; 0=no damage to plant)
Outline: as §2

Row | Compound | pest or weed control at 15.625 g/ha [1] | pest or weed control at 62.5 g/ha [1] | pest or weed control at 250 g/ha [1] | pest or weed control at 15.625 g/ha [2] | pest or weed control at 62.5 g/ha [2] | pest or weed control at 250 g/ha [2] | pest or weed control at 15.625 g/ha [3] | pest or weed control at 62.5 g/ha [3] | pest or weed control at 250 g/ha [3] | pest or weed control at 15.625 g/ha [4] | pest or weed control at 62.5 g/ha [4] | pest or weed control at 250 g/ha [4] | plant injury at 15.625 g/ha [5] | plant injury at 62.5 g/ha [5] | plant injury at 250 g/ha [5] | pest or weed control at 15.625 g/ha [6] | pest or weed control at 62.5 g/ha [6] | pest or weed control at 250 g/ha [6] | pest or weed control at 15.625 g/ha [7] | pest or weed control at 62.5 g/ha [7] | also measured
1 | Cc1nnc(NC(=O)[C@@H]2C(=O)N(C)C[C@H]2c2ccc(C(F)(F)F)cc2)s1 (racemic) [Compound 1559] | 0% | 0% | 0% | 0% | 0% | 0% | 0% | 0% | 0% | 0% | 0% | 0% | 0% | 0% | 0% | 0% | 0% | 0% | 0% | 0% | pest or weed control at 250 g/ha [7]: 0%; pest or weed control at 15.625 g/ha [8]: 0%; pest or weed control at 62.5 g/ha [8]: 0%; pest or weed control at 250 g/ha [8]: 0%; pest or weed control at 15.625 g/ha [9]: 0%; pest or weed control at 62.5 g/ha [9]: 0%; pest or weed control at 250 g/ha [9]: 0%; pest or weed control at 15.625 g/ha [10]: 0%; pest or weed control at 62.5 g/ha [10]: 0%; pest or weed control at 250 g/ha [10]: 0%; plant injury at 15.625 g/ha [11]: 0%; plant injury at 62.5 g/ha [11]: 0%; plant injury at 250 g/ha [11]: 0%; pest or weed control at 15.625 g/ha [12]: 0%; pest or weed control at 62.5 g/ha [12]: 0%; pest or weed control at 250 g/ha [12]: 0%
2 | Cc1cnc(NC(=O)[C@@H]2C(=O)N(C)C[C@H]2c2ccc(C(F)(F)F)cc2)s1 (racemic) [Compound 1570] | 0% | 0% | 0% | 0% | 0% | 10% | 0% | 0% | 20% | 0% | 0% | 0% | 0% | 0% | 0% | 0% | 0% | 10% | 0% | 0% | pest or weed control at 250 g/ha [7]: 0%; pest or weed control at 15.625 g/ha [8]: 0%; pest or weed control at 62.5 g/ha [8]: 0%; pest or weed control at 250 g/ha [8]: 0%; pest or weed control at 15.625 g/ha [9]: 0%; pest or weed control at 62.5 g/ha [9]: 0%; pest or weed control at 250 g/ha [9]: 0%; pest or weed control at 15.625 g/ha [10]: 0%; pest or weed control at 62.5 g/ha [10]: 0%; pest or weed control at 250 g/ha [10]: 0%; plant injury at 15.625 g/ha [11]: 0%; plant injury at 62.5 g/ha [11]: 0%; plant injury at 250 g/ha [11]: 0%; pest or weed control at 15.625 g/ha [12]: 0%; pest or weed control at 62.5 g/ha [12]: 0%; pest or weed control at 250 g/ha [12]: 0%
3 | CN1C[C@@H](c2ccc(C(F)(F)F)cc2)[C@H](C(=O)Nc2cnccn2)C1=O (racemic) [Compound 1572] | 0% | 0% | 20% | 0% | 0% | 0% | 0% | 0% | 40% | 0% | 0% | 0% | 0% | 0% | 0% | 0% | 10% | 30% | 0% | 0% | pest or weed control at 250 g/ha [7]: 0%; pest or weed control at 15.625 g/ha [8]: 0%; pest or weed control at 62.5 g/ha [8]: 0%; pest or weed control at 250 g/ha [8]: 0%; pest or weed control at 15.625 g/ha [9]: 0%; pest or weed control at 62.5 g/ha [9]: 0%; pest or weed control at 250 g/ha [9]: 0%; pest or weed control at 15.625 g/ha [10]: 0%; pest or weed control at 62.5 g/ha [10]: 0%; pest or weed control at 250 g/ha [10]: 0%; plant injury at 15.625 g/ha [11]: 0%; plant injury at 62.5 g/ha [11]: 0%; plant injury at 250 g/ha [11]: 0%; pest or weed control at 15.625 g/ha [12]: 0%; pest or weed control at 62.5 g/ha [12]: 0%; pest or weed control at 250 g/ha [12]: 0%
